The data set concerns the target recombinant human CYP3A4 enzyme (Homo sapiens, UniProt P08684). Nature of the data set: CYP3A4-Glo Screening System luminescent CYP3A4 inhibition assay. The following applies: for CYP3A4 inhibition activity (in words): compared with pterostilbene and ellipticine.

This note sets out measurements from article PMC9086869 (RSC Advances, 2018).

recombinant human CYP3A4 enzyme, sequence (P08684 whole entry): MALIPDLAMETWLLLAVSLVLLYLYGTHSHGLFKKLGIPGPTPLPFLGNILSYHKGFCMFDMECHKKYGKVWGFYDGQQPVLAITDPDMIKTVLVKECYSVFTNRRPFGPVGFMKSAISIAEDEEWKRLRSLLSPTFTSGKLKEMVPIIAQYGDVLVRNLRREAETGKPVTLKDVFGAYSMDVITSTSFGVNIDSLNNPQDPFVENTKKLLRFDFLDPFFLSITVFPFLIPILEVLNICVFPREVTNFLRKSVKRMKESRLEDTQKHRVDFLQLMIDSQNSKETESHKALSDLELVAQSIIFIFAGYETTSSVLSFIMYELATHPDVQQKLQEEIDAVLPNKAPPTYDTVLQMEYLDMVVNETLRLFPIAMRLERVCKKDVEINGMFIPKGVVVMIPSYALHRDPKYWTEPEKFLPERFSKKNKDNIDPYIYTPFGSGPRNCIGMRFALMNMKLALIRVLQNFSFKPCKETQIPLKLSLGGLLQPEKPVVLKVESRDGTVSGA

As for `O=C(/C=C/c1ccc(O)cc1)CC(=O)/C=C/c1ccc(O)cc1` [Bisdemethoxycurcumin], the IC50 – broadly, the point on the concentration scale where inhibition reaches its midpoint – turned out to be 14.8 ± 2.09 µM and the “CYP3A4 inhibition activity (in words)” value is “weaker”. Turning to `Cc1c2ccncc2c(C)c2c1[nH]c1ccccc12` [Ellipticine], the IC50 was found to be 0.052 ± 0.003 µM.

As to `CC(C)=CCOc1c2ccoc2cc2oc(=O)ccc12` [Isoimperatorin], the IC50 was found to be 18.2 ± 1.72 µM and the “CYP3A4 inhibition activity (in words)” value was “weaker”. As for `COc1cc(/C=C/c2ccc(O)cc2)cc(OC)c1` [Pterostilbene], the IC50 was determined as 1.12 ± 0.056 µM.
